# From patent US20170342025A1, “ANTIMICROBIAL COMPOUNDS, COMPOSITIONS AND METHODS” (Swansea University, priority 2014, published 2017)
# Read-outs that look alike come from different tables or passages of the source.
# Legend:
# [1] = system: Staphylococcus aureus (strain 9518); test: MIC determination against Staphylococcus aureus (Andrews protocol); type: cell-based; conditions: for MIC: Staphylococcus aureus, read-out: MIC S. aureus
# Protocol: (§1) Minimum Inhibitory Concentrations (MICs) for the compounds prepared were determined against Escherichia coli (strain JM109) and Staphylococcus aureus (strain 9518) using the protocols described by Andrews (J. Antimicrob. Chemother., 2001, 48, Suppl. S1, 5-16).
# [2] = system: Escherichia coli (strain JM109); test: MIC determination against Escherichia coli (Andrews protocol); type: cell-based; conditions: for MIC: Escherichia coli, read-out: MIC E. coli
# Protocol: as §1
# [3] = Staphylococcus aureus strain 9518
melting point [°C],"MIC [1, 3] [mg/L]",MIC ([2]; Escherichia coli strain JM109) [mg/L],SMILES,other results
245 to 247,10 to 32,10 to 32,"Cl.N=C(N)N/N=C/c1cccc(OCc2ccc(C(F)(F)F)cc2)c1Cl [Compound 51k, (E)-Amino(2-(2-chloro-3-((4-(trifluoromethyl)benzyl)oxy)benzylidene)hydrazinyl) methaniminium chloride]",–
203 to 205,1 to 10,1 to 10,"Cl.N=C(N)N/N=C/c1cccc(OCc2ccccc2)c1Cl [Compound 51b, (E)-Amino(2-(3-(benzyloxy)-2-chlorobenzylidene)hydrazinyl)methaniminium chloride]",–
183 to 187,1 to 10,1 to 10,"CC(=O)O.N=C(N)N/N=C/c1cccc(OCc2cccc(C(F)(F)F)c2)c1Cl [Compound 51j, (E)-Amino(2-(2-chloro-3-((3-(trifluoromethyl)benzyl)oxy)benzylidene)hydrazinyl) methaniminium acetate]",–
274 to 277,32 to 100,1 to 10,"Cl.N=C(N)N/N=C/c1cccc(OCc2cccc(C(F)(F)F)c2Cl)c1Cl [Compound 51e, (E)-Amino(2-(2-chloro-3-((2-chloro-3-(trifluoromethyl)benzyl)oxy)benzylidene) hydrazinyl)methaniminium chloride]",–
242 to 244,32 to 100,10 to 32,"Cl.N=C(N)N/N=C/c1cccc(OCc2cc(Cl)ccc2Cl)c1Cl [Compound 51g, (E)-Amino(2-(2-chloro-3-((2,5-dichlorobenzyl)oxy)benzylidene)hydrazinyl) methaniminium chloride]",–
268 to 270,32 to 100,1 to 10,"Cl.N=C(N)N/N=C/c1cccc(OCc2ccc(Cl)cc2Cl)c1Cl [Compound 51f, (E)-Amino(2-(2-chloro-3-((2,4-dichlorobenzyl)oxy)benzylidene)hydrazinyl) methaniminium chloride]",–
190 to 192,1 to 10,1 to 10,"CC(=O)O.N=C(N)NN=Cc1cccc(OCc2cccc(C(F)(F)F)c2Cl)c1 [Compound 49b, 1-{[(3-{[2-chloro-3-(trifluoromethyl)phenyl]methoxy}phenyl)methylidene]amino} guanidine acetate]",–
250 to 253,32 to 100,1 to 10,"Cl.N=C(N)N/N=C/c1cccc(OCc2cccc(Cl)c2Cl)c1Cl [Compound 51d, (E)-Amino(2-(2-chloro-3-((2,3-dichlorobenzyl)oxy)benzylidene)hydrazinyl) methaniminium chloride]",–
273 to 276,32 to 100,32 to 100,"Cl.N=C(N)N/N=C/c1cccc(OCc2cc(Cl)cc(Cl)c2Cl)c1Cl [Compound 51i, (E)-Amino(2-(2-chloro-3-((2,3,5-trichlorobenzyl)oxy)benzylidene)hydrazinyl) methaniminium chloride]",–
191 to 193,–,–,Cl.N=C(N)N/N=C/c1cccc(OCc2ccc(Cl)cc2)c1,–
–,–,–,"N=C(N)NCc1cccc(OCc2ccc(Cl)c(Cl)c2)c1.O=C(O)C(F)(F)F [Compound 4e, 1-({3-[(3,4-dichlorophenyl)methoxy]phenyl}methyl)guanidine 2,2,2-trifluoroacetate]",MIC [1]: 1 to 10 mg/L; MIC [2]: 10 to 32 mg/L
–,10 to 32,10 to 32,"Cl.N=C(N)N/N=C/c1cccn1Cc1cccc(C(F)(F)F)c1 [Compound 61g, (E)-Amino(2-((1-(3-(trifluoromethyl)benzyl)-1H-pyrrol-2-yl)methylene) hydrazinyl)methaniminium chloride]",–
–,10 to 32,10 to 32,"Cl.N=C(N)N/N=C/c1cccn1Cc1ccc(C(F)(F)F)cc1 [Compound 61h, (E)-Amino(2-((1-(4-(trifluoromethyl)benzyl)-1H-pyrrol-2-yl)methylene) hydrazinyl)methaniminium chloride]",–
–,–,–,"N=C(N)NCc1c(F)ccc(OCc2cccc(C(F)(F)F)c2)c1F.O=C(O)C(F)(F)F [Compound 4p, 1-[(2,6-difluoro-3-{[3-(trifluoromethyl)phenyl]methoxy}phenyl)methyl]guanidine 2,2,2-trifluoroacetate]",MIC [1]: 1 to 10 mg/L; MIC [2]: 1 to 10 mg/L
198 to 201,–,–,Cl.N=C(N)N/N=C/c1cccc(OCc2cccc(C(F)(F)F)c2)c1Cl,–
–,–,–,"N=C(N)NCc1cccc(OCc2ccc(Cl)cc2)c1.O=C(O)C(F)(F)F [Compound 4b, 1-({3-[(4-chlorophenyl)methoxy]phenyl}methyl)guanidine 2,2,2-trifluoroacetate]",MIC [1]: 1 to 10 mg/L; MIC [2]: 1 to 10 mg/L
–,–,–,"N=C(N)NCc1cccc(OCc2cccc(Cl)c2Cl)c1.O=C(O)C(F)(F)F [Compound 4g, 1-({3-[(2,3-dichlorophenyl)methoxy]phenyl}methyl)guanidine 2,2,2-trifluoroacetate]",MIC [1]: 10 to 32 mg/L; MIC [2]: 10 to 32 mg/L
–,–,–,"N=C(N)NCc1cccc(OCc2cccc(Cl)c2)c1.O=C(O)C(F)(F)F [Compound 4c, 1-({3-[(3-chlorophenyl)methoxy]phenyl}methyl)guanidine 2,2,2-trifluoroacetate]",MIC [1]: 10 to 32 mg/L; MIC [2]: 10 to 32 mg/L
–,–,–,"N=C(N)NC(=O)c1cccc(OCc2ccccc2)c1.O=C(O)C(F)(F)F [Compound 47, 3-(benzyloxy)-N-carbamimidoylbenzamide 2,2,2-trifluoroacetate]",MIC [1]: 10 to 32 mg/L; MIC [2]: 32 to 100 mg/L
–,10 to 32,1 to 10,"Cl.N=C(N)N/N=C/c1nccn1Cc1ccc(C(F)(F)F)cc1 [Compound 61d, (E)-Amino(2-((1-(4-(trifluoromethyl)benzyl)-1H-imidazol-2-yl)methylene) hydrazinyl)methaniminium chloride]",–
–,10 to 32,32 to 100,"Cl.N=C(N)N/N=C/c1cccn1Cc1ccc(Cl)cc1 [Compound 61f, (E)-Amino(2-((1-(4-chlorobenzyl)-1H-pyrrol-2-yl)methylene)hydrazinyl) methaniminium chloride]",–
–,–,–,"Cl.N=C(N)N/N=C/c1cccc(OCc2ccc(C(F)(F)F)cc2)c1 [Compound 49f, (E)-Amino(2-(3-((4-(trifluoromethyl)benzyl)oxy)benzylidene)hydrazinyl) methaniminium chloride]","MIC S. aureus [1, 3]: +++ (MIC 1-10 μg/mL); MIC E. coli ([2]; Escherichia coli strain JM109): ++ (MIC 10-32 μg/mL)"
–,10 to 32,10 to 32,"Cl.N=C(N)N1CCc2c(cccc2OCc2cccc(Cl)c2Cl)C1 [Compound 38, 5-[(2,3-dichlorophenyl)methoxy]-1,2,3,4-tetrahydroisoquinoline-2-carboximidamide hydrochloride]",–
–,–,–,"N=C(N)NCc1ccc(N)cc1.O=C(O)C(F)(F)F [Compound 53b, Amino((4-aminobenzyl)amino)methaniminium 2,2,2-trifluoroacetate]",MIC [1]: 32 to 100 mg/L; MIC [2]: 32 to 100 mg/L

SMILES,melting point [°C],"MIC [1, 3] [mg/L]",MIC ([2]; Escherichia coli strain JM109) [mg/L],other results
"N=C(N)Nc1cccc2c1CCCC2.O=C(O)C(F)(F)F [Compound 23d, 1-(5,6,7,8-tetrahydronaphthalen-1-yl)guanidine 2,2,2-trifluoroacetate]",153 to 155,> 100,> 100,–
"COCCN(Cc1cccc(OCc2cccc(Cl)c2Cl)c1)C(=N)N.O=C(O)C(F)(F)F [Compound 9b, 1-({3-[(2,3-dichlorophenyl)methoxy]phenyl}methyl)-1-(2-methoxyethyl) guanidine 2,2,2-trifluoroacetate]",–,10 to 32,10 to 32,–
"COc1cccc(N2CCN(C(=N)N)CC2)c1.O=C(O)C(F)(F)F.O=C(O)C(F)(F)F [Compound 44b, 4-(3-methoxyphenyl)piperazine-1-carboximidamide bis-(2,2,2-trifluoroacetate)]",–,> 100,> 100,–
"N=C(N)NOCc1cccc(-c2ccccc2)c1.O=C(O)C(F)(F)F [Compound 41a, 1-[(3-phenylphenyl)methoxy]guanidine 2,2,2-trifluoroacetate]",–,> 100,> 100,–
"N=C(N)NCc1ccc(OCc2cccc(Cl)c2)cc1.O=C(O)C(F)(F)F [Compound 19c, 1-(4-((3-chlorobenzyl)oxy)benzyl)guanidine 2,2,2-trifluoroacetate]",–,10 to 32,> 100,–
"N=C(N)NCc1ccc(OCc2ccc(Cl)cc2)cc1.O=C(O)C(F)(F)F [Compound 19b, 1-(4-((4-chlorobenzyl)oxy)benzyl)guanidine 2,2,2-trifluoroacetate]",–,32 to 100,> 100,–
"CC(C)(C)OC(=O)NC(=N)N1CCc2ccc(-c3ccc(C(C)(C)C)cc3)cc2C1.O=C(O)C(F)(F)F [Compound 28, tert-butyl N-[7-(4-tert-butylphenyl)-1,2,3,4-tetrahydroisoquinoline-2-carboximidoyl]carbamate 2,2,2-trifluoroacetate]",–,32 to 100,> 100,–
"N=C(N)NCc1cccc(NS(=O)(=O)c2cccc(Cl)c2Cl)c1.O=C(O)C(F)(F)F [Compound 55g, Amino((3-((2,3-dichlorophenyl)sulfonamido)benzyl)amino)methaniminium 2,2,2-trifluoroacetate]",–,32 to 100,32 to 100,–
"N=C(N)NOCc1cccc(Oc2ccccc2)c1.O=C(O)C(F)(F)F [Compound 41b, 1-[(3-phenoxyphenyl)methoxy]guanidine 2,2,2-trifluoroacetate]",–,> 100,> 100,–
"N=C(N)N1CCN(c2ccc(Cl)cc2)CC1.O=C(O)C(F)(F)F.O=C(O)C(F)(F)F [Compound 44a, 4-(4-chlorophenyl)piperazine-1-carboximidamide bis-(2,2,2-trifluoroacetate)]",–,> 100,> 100,–
"N=C(N)NCc1cccc(NS(=O)(=O)c2cccc(C(F)(F)F)c2)c1.O=C(O)C(F)(F)F [Compound 55h, Amino((3-((3-(trifluoromethyl)phenyl)sulfonamido)benzyl)amino) methaniminium 2,2,2-trifluoroacetate]",–,32 to 100,32 to 100,–
